# Reference: patent US8211660B2, “In-vivo monitoring of circulating apoptotic cells” (The General Hospital Corporation, priority 2004, dated 2012)
# System: MatLyLu mouse prostate cancer cells
# Assay: Apoptosis of camptothecin-pretreated MatLyLu cells verified by conventional flow cytometry (FITC-annexin V / propidium iodide)
# Type: cell-based
# Conditions: MatLyLu cells pretreated with camptothecin
# Protocol: MatLyLu […] prostate cancer cells pretreated with camptothecin were employed as a positive control. It was verified by conventional flow cytometry that more than about 80% of the camptothecin-treated cells undergo apoptosis (i.e. >80% of the treated cells were FITC-annexin V^+ positive and propidium iodide negative). The camptothecin-treated cells were then labeled with the AF647-conjugated annexin-V and injected intravenously into the mouse. The circulating annexin-V^+ cells were measured by focusing a He—Ne laser beam having a wavelength of 633 nm through a slit onto an ear vessel (typically a small artery) and confocally detecting the fluorescent bursts (peaks) as individual cells flowed through the probe beam. The emitted fluorescence was detected by a photomultiplier tube and was digitized for analysis. The confocal detection of the emitted fluorescence allowed continuous monitoring over the measurement period of the labeled cells flowing through the vessel.
smiles,measurement,value
CC[C@@]1(O)C(=O)OCc2c1cc1n(c2=O)Cc2cc3ccccc3nc2-1 [camptothecin],treated cells undergoing apoptosis (FITC-annexin V positive and propidium iodide negative),more than 80%
